Data on six molecules can be found in ChEMBL document CHEMBL1201862, “PubChem BioAssay data set” (2004).

Molecules are shown by their SMILES. Activity calls are given as the source filed them.

Data set [1] concerns the target T1, RNA-binding protein pos-1 (Caenorhabditis elegans, UniProt G5EF15).
T1 sequence (G5EF15 whole entry): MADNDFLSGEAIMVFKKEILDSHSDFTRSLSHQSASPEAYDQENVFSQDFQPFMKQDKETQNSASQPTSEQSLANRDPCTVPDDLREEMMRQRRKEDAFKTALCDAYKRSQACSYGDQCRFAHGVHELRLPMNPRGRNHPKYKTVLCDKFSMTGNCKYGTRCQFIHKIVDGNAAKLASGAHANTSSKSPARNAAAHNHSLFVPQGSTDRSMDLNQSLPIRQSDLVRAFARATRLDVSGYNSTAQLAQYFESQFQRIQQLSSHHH
In words: inhibitors of POS-1/mex-3 RNA binding, dose response, biochemical, fluorescence polarization (AID 1964).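 Note: purified POS-1 fused to maltose binding protein made in E. coli; potency of compounds blocking POS-1 binding to fluorescent RNA.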

In data set [2] the target is T2, Protein RecA (Mycobacterium tuberculosis, UniProt P9WHJ3).
T2 sequence (P9WHJ3 whole entry): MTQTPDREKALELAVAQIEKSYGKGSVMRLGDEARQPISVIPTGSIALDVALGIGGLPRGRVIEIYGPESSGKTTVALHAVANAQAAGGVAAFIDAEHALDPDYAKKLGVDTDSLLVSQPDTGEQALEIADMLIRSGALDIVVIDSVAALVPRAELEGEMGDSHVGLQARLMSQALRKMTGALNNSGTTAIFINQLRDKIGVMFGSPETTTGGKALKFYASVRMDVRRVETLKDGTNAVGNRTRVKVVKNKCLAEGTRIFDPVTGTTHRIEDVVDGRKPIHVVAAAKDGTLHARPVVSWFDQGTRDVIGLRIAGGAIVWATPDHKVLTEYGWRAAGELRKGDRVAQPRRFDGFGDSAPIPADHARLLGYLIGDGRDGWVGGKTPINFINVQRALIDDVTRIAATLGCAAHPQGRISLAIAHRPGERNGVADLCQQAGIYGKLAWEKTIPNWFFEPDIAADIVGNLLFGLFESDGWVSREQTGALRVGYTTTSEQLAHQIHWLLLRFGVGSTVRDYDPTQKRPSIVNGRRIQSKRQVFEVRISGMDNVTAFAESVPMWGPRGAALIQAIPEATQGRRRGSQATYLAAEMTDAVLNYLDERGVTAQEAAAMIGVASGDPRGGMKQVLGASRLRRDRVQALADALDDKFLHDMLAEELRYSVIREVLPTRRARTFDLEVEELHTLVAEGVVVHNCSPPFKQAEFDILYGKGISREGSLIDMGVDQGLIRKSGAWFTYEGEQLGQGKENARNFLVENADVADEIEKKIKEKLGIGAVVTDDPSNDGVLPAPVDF
In words: Fluorescence Cell-Free Homogeneous Dose Retest to Identify Inhibitors of RecA-Intein Splicing Activity. [Related pubchem assays (depositor defined):AID2097, AID2223, AID489010, AID492950]. Type of data set: functional.

Data set [3] is described as follows: ARNT/TACC3 interaction disruptors, potency, confirmation, biochemical, AlphaScreen, cherry-picked samples (AID 651703).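 Note: His-tagged ARNT PAS-B domain paired with GST-TACC3 E629A dimer coactivator fragment; potency of inhibitors that break up the complex and lower AlphaScreen signal.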 It counts as functional, Homo sapiens. A general note: Alpha assays give light when donor and acceptor beads are brought close together.
The target in data set [4] is T3, Sentrin-specific protease 8 (Homo sapiens, UniProt Q96LD8).
T3 sequence (Q96LD8 whole entry): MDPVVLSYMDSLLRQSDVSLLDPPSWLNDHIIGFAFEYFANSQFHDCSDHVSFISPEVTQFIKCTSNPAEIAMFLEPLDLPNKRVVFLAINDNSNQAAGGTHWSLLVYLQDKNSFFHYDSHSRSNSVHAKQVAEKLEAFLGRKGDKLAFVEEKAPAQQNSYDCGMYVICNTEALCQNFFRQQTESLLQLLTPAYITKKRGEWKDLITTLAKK
It counts as functional.

The target of data set [5] is T4, Zinc finger protein mex-5 (Caenorhabditis elegans, UniProt Q9XUB2).
T4 sequence (Q9XUB2 whole entry): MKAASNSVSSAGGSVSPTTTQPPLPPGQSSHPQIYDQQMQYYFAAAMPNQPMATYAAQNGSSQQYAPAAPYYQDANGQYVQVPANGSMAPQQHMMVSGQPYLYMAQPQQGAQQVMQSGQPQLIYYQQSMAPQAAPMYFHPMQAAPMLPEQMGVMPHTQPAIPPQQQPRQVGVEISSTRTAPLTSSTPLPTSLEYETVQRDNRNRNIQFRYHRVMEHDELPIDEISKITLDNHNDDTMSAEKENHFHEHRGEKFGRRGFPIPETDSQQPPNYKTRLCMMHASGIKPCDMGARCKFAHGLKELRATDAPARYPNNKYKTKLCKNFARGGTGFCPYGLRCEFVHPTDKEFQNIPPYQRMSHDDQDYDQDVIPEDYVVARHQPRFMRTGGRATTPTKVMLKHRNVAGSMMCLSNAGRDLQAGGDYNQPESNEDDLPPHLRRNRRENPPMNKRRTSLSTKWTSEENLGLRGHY
Description: MEX-5/TCR-2 RNA interaction inhibitors, dose response, biochemical, C. elegans, fluorescence polarization (AID 1960). Background: In fluorescence polarisation assays a small probe gives low polarisation when free and higher when bound to something large.

In data set [6] the target is T3, Sentrin-specific protease 8. Type of data set: functional. This is another data set of the same source.
In data set [7] the target is T5, Tyrosyl-DNA phosphodiesterase 2 (Homo sapiens, UniProt O95551).
T5 sequence (O95551 whole entry): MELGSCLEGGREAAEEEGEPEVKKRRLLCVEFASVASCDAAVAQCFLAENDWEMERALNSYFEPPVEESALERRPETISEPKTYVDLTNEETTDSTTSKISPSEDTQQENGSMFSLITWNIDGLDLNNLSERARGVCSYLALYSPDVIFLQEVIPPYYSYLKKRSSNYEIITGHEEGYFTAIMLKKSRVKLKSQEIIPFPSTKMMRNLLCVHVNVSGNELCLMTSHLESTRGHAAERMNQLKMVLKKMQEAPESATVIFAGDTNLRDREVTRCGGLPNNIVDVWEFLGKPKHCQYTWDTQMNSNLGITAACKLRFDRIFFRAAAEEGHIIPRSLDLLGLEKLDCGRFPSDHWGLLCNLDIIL
Description: human TDP2 enzyme inhibitors, dose response, biochemical, epi absorbance, IC50 (AID 743297).

Data set [8] concerns the target T6, Replicative DNA helicase DnaB (Mycobacterium tuberculosis, UniProt P9WMR3).
T6 sequence (P9WMR3 whole entry): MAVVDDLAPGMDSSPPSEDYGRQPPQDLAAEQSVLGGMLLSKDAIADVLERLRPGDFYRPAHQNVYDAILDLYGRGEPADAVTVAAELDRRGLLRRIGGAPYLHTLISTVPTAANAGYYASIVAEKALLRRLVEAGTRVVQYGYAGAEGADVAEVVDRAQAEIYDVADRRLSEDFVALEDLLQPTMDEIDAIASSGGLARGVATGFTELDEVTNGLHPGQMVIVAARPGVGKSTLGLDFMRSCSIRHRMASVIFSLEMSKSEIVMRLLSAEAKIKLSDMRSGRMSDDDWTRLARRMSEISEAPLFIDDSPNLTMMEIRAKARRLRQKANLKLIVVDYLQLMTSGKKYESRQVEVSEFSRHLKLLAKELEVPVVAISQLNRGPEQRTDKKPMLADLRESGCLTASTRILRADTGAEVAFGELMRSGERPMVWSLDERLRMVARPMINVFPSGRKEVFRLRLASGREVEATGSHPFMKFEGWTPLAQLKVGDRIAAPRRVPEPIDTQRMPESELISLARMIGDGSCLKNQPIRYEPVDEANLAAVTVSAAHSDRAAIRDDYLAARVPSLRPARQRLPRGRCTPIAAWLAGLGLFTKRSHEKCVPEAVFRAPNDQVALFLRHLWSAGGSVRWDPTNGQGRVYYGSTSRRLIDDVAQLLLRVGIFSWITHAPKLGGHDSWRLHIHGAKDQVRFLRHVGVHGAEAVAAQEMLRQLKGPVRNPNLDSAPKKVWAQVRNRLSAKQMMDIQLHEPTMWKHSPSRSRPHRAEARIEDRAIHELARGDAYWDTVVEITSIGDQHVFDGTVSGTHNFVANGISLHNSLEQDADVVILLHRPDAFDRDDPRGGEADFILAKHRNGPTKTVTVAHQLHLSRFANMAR
In words: DnaB intein splicing inhibitors, dose response, biochemical, cell-free fluorescence (AID 449749). It counts as functional.

Data set [9] is described as follows: HEK293T cell cytotoxicity, dose response, cytotoxicity control for HIV Vif inhibitor project, cherry-picks (AID 652208). Type of data set: functional, cell-based.
Data set [10] concerns Streptococcus. Description: Group A Streptococcus viability loss, dose response, counter-screen for streptokinase expression inhibitor project, luminescence, BacTiterGlo (AID 1915).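 Note: potency for reduction of bacterial viability or growth.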 Type of data set: functional, organism-based. On the technique in general: A counterscreen serves to expose hits that act by an unwanted route or on another target.
A short description of data set [11]: Luminescence Cell-Based Dose Retest to Confirm Inhibitors of Cancer Stem Cells. [Related pubchem assays (depositor defined):AID2717, AID2721]. Type of data set: functional. As to conditions: Homo sapiens.
Data set [12] relates to Streptococcus sp. 'group A'. In words: growth inhibition of control SK(-) GAS strain, dose response, counter-screen for streptokinase expression inhibitor project, luminescence, kanamycin, BacTiterGlo, confirmation (AID 1900). Type of data set: functional, organism-based.
Data set [13] has as its target T7, Corticotropin-releasing factor receptor 2/Corticotropin-releasing factor-binding protein (Homo sapiens, UniProt P24387+Q13324).
T7 sequence (Q13324 whole entry): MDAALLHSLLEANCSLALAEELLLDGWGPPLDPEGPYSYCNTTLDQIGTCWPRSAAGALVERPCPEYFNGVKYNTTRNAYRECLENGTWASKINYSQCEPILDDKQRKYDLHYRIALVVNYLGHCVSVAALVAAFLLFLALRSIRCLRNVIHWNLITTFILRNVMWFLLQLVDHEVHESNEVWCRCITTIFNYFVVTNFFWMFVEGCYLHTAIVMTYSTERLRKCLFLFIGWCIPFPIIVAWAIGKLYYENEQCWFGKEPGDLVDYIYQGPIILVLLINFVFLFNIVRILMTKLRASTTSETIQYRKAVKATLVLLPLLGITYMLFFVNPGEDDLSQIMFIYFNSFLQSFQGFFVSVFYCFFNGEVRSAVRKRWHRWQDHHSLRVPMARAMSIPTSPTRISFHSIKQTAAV
T7 sequence (P24387 whole entry): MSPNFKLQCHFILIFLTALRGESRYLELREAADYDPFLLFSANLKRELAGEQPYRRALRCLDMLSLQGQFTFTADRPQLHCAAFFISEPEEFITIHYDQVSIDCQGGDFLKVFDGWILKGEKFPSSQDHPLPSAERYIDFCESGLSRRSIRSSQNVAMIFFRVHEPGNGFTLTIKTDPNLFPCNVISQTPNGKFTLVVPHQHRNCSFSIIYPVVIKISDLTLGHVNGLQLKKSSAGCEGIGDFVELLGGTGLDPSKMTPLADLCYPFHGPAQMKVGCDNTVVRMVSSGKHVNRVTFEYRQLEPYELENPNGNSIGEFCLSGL
In words: Dose Response confirmation of uHTS hits for small molecule antagonists of the CRF-binding protein and CRF-R2 receptor complex. Type of data set: functional. As to conditions: read-out: IC50_Mean.

Data set [14] in a line: cells. It counts as functional, cell-based. As to conditions: HEK-CNG.
Data set [15] is described as follows: off-target signal loss in HeLa-CEM21 co-culture – HeLa F-luc CTL cells, cherry-picked, counter-screen for HIV-1 Env fusion inhibitor project, dose response (AID 652040).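 Note: potency for signal decrease marking cytotoxic or nonspecific inhibition.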 It counts as functional, cell-based.
A short description of data set [16]: inhibitors of clade B AD8 Env fusion, dose response, cell-based, cherry-pick (AID 652062).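 Note: luciferase signal from cell-cell fusion driven by HIV-1 clade B AD8 Env; potency is for inhibitors of fusion seen as a drop in luminescence.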 Type of data set: functional.
Data set [17] concerns the target Galanin receptor type 3 (Homo sapiens, UniProt O60755). In words: Fluorescence-based cell-based primary high throughput dose response assay to identify antagonists of the Galanin Receptor 3 (GalR3). Type of data set: functional.
For data set [18], the target named is Cytochrome P450 2C9 (Homo sapiens, UniProt P11712).
Sequence of Cytochrome P450 2C9 (P11712 whole entry): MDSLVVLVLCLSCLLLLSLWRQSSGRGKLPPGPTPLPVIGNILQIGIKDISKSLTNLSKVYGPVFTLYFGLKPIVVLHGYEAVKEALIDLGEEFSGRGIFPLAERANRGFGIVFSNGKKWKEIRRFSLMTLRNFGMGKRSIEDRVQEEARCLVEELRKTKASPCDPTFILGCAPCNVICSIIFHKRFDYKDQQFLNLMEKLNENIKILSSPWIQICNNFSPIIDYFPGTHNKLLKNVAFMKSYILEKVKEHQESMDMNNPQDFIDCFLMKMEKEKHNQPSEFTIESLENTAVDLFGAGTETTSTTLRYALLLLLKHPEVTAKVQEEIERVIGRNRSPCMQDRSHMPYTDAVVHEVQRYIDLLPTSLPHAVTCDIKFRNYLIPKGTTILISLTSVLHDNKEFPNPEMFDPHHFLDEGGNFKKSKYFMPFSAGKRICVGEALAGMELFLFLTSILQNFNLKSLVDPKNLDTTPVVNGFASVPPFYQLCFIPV
Data set [19] concerns the target T7, Corticotropin-releasing factor receptor 2/Corticotropin-releasing factor-binding protein. Description: activators of CRF receptor 2 with binding protein – uHTS hits, confirmation (AID 602473). It counts as functional. As to conditions: read-out: EC50_Mean.
Data set [20] in a line: NIH/3T3 fibroblast cytotoxicity, dose response, cytotoxicity control for T. cruzi growth inhibitor project, cell-based, cherry-pick samples, set 2 (AID 651817). Type of data set: functional. As to conditions: NIH3T3.

Sequence of Galanin receptor type 3 (O60755 whole entry): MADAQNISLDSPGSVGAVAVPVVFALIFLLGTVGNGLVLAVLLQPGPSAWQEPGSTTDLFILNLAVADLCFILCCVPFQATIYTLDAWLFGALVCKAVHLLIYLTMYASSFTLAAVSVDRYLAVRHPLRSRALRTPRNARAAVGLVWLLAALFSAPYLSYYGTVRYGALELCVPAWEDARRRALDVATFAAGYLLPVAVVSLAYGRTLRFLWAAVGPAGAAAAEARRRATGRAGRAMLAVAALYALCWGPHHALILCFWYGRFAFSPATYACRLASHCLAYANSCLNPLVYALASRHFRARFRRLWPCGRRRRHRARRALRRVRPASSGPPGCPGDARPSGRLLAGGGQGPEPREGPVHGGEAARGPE

As for `Cc1n[nH]c(O)c1C(c1ccc(-c2ccccc2C(=O)O)o1)c1c(C)n[nH]c1O`, the EC50 in data set [1] is 148 µM (active); in data set [2], 0.256 µM (active); in data set [5] it was 37 µM (active). For the same molecule, the AC50 in data set [3] was 82.1 µM (active); in data set [8], 0.335 µM (active). In addition, the values for the IC50 in data set [4], in data set [6] and in data set [7] were 16.4 µM (active), > 100 µM (inactive) and > 128 µM (inactive), respectively.

With `COc1cc(NC(=O)c2ccc(-c3csc(C)n3)cc2)c(OC)cc1Cl`, in [9], the AC50 is 38.2 µM (active).

As to `Cc1nn2c(COc3ccc(NC(=O)c4ccccc4Cl)cc3)nnc2c2ccccc12`, the EC50 in [10] is 1.36 µM (active); in [12], 2.06 µM (active). For the same molecule, the results for the AC50 in [9] and in [11] were > 52 µM (inactive) and 2.59 µM (active), respectively.

For the molecule `Cc1nn(C)c(Cl)c1NC(=O)OCc1ccc(Cl)cc1Cl`, the results for the IC50 in data set [13] and in data set [17] were > 47.1 µM (inactive) and 2.13 µM (active), respectively. The EC50 in data set [14] was > 29.9 µM (inactive); in data set [19] it was > 53 µM (inactive). Further, the AC50 in [15] was > 70 µM (inactive); in data set [16], 22.5 µM (active); in data set [18], “inconclusive”.

Take `C[C@H](CO)N1C[C@H](C)[C@H](CN(C)Cc2ccc(Cl)c(Cl)c2)Oc2c(NC(=O)c3ccncc3)cccc2C1=O`: the AC50 in data set [20] was 39 µM (inactive).

`COc1ccc(CN(C)C[C@H]2Oc3c(NC(=O)Nc4ccc(C(F)(F)F)cc4)cccc3C(=O)N([C@@H](C)CO)C[C@@H]2C)cc1`: in data set [20], the AC50 is 14.4 µM (active).

One may read the AC50 as the concentration giving half of the maximal activity seen.
